Laboratory results from US6387417B1, “Bactericide against vancomycin resistant enterococcus” (priority 2000, dated 2002).
Where two headings read alike, the source gives them in different places.

Tests used:
[1] = Solubility of hinokitiol in liquid carrier; assay type: physicochemical
[2] = test system: Enterococcus faecalis KIH-C233; test: MIC of antibiotics for the strain used; assay type: cell-based; conditions: E. faecalis KIH-C233, collected from a patient
[3] = test system: Enterococcus gallinarum KIH-241; test: MIC of antibiotics for the strain used; assay type: cell-based
[4] = test system: Enterococcus faecium KIH-234; test: MIC of antibiotics for the strain used; assay type: cell-based; conditions: KIH234, E. faecium KIH-234, collected from a patient
[5] = test system: Enterococcus faecium KIH-237; test: MIC of antibiotics for the strain used; assay type: cell-based; conditions: KIH237, E. faecium KIH-237, collected from an imported chicken
[6] = expected maximum; cited from earlier work
[7] = Enterococcus faecalis, KIHC233, read-out: MIC
[8] = Enterococcus gallinarum, E. gallinarum KIH-241, collected from a chicken grown in Japan, read-out: MIC

Row | MIC [2, 7] [µg/mL] | MIC [3, 8] [µg/mL] | MIC [4] [µg/mL] | MIC [5] [µg/mL] | SMILES | other results
1 |  |  |  |  | CC(C)c1cccc(=O)c(O)c1 [hinokitiol, Hinokitiol] | hinokitiol content achievable in the composition ([1]; alcohol as liquid carrier, without aloe extract and the like extract): up to 5 % by mass; hinokitiol concentration obtainable in aqueous solution ([1]; water with surface active agent (glycerin fatty acid ester) and/or botanical emulsifier (quillaia saponin)): up to 10 % by mass; hinokitiol concentration obtainable in aqueous solution ([1]; water, combined with the aloe extract and like extracts): about 1 % by mass
2 | > 32 | > 32 | > 32 | > 32 | CO[C@@]1(NC(=O)CSCC#N)C(=O)N2C(C(=O)O)=C(CSc3nnnn3C)CS[C@@H]21 [CMZ, cefmetazole] | 
3 | > 32 | > 1 | > 32 | > 32 | CC[C@H]1OC(=O)[C@H](C)[C@@H](O[C@H]2C[C@@](C)(OC)[C@@H](O)[C@H](C)O2)[C@H](C)[C@@H](O[C@@H]2O[C@H](C)C[C@H](N(C)C)[C@H]2O)[C@](C)(O)C[C@@H](C)C(=O)[C@H](C)[C@@H](O)[C@]1(C)O [EM, erythromycin] | 
4 |  |  |  |  | C[C@@H](O)[C@H]1C(=O)N2C(C(=O)O)=C(SCCN=CN)C[C@H]12 [IPM, imipenem] | MIC [2]: 1 µg/mL; MIC ([3]; E. gallinarum KIH-241, collected from a chicken grown in Japan): 1 µg/mL
5 | 4 | 1 | 16 | 16 | CC1(C)S[C@@H]2[C@H](NC(=O)Cc3ccccc3)C(=O)N2[C@H]1C(=O)O [PCG, benzylpenicillin] | 
6 | 1 | 4 | 16 | 4 | CC1(C)S[C@@H]2[C@H](NC(=O)[C@H](N)c3ccccc3)C(=O)N2[C@H]1C(=O)O [ABPC, aminobenzylpenicillin] | 

Row | SMILES | MIC [2, 7] [µg/mL] | MIC [3, 8] [µg/mL] | MIC [4] [µg/mL] | MIC [5] [µg/mL] | other results
7 | CN[C@H](CC(C)C)C(=O)N[C@H]1C(=O)N[C@@H](CC(N)=O)C(=O)N[C@H]2C(=O)N[C@H]3C(=O)N[C@H](C(=O)N[C@H](C(=O)O)c4cc(O)cc(O)c4-c4cc3ccc4O)[C@H](O)c3ccc(c(Cl)c3)Oc3cc2cc(c3O[C@@H]2O[C@H](CO)[C@@H](O)[C@H](O)[C@H]2O[C@H]2C[C@](C)(N)[C@H](O)[C@H](C)O2)Oc2ccc(cc2Cl)[C@H]1O [VCM, vancomycin] | 2 |  | 0.5 | 500 | MIC ([3]; Enterococcus gallinarum, GALLINARUM): 8 µg/mL; concentration of vancomycin in blood at maximum [6]: no more than 6 μg/ml
